Legend:
Format in all cases: in vivo, human
[1] = system: subjects with Acute Migraines; assay: BHV3000-301 Phase 3 trial, acute treatment of migraine: efficacy; conditions: Study 301; P<0.0001
Method: Clinical Trial—BHV3000-301: Phase 3: Double-Blind, Randomized, Placebo-Controlled, Safety and Efficacy Trial of BHV-3000 (Rimegepant) for the Acute Treatment of Migraine (ClinicalTrials.gov Identifier: NCT03235479). A phase 3 clinical study was conducted with 1490 participants, as follows. […] Pain freedom of rimegepant (75 mg tablet) compared with placebo in the acute treatment of migraine will be measured using the number of evaluable subjects that report no pain at 2 hours post-dose. [Time Frame: Two hours post dose] • Pain will be measured on a 4 point Likert scale (0=none, 1=mild, 2=moderate, 3=severe) • 2. Freedom from the most bothersome symptom (MBS) of rimegepant (75 mg tablet) compared with placebo will be measured using the number of evaluable subjects that report the absence of their MBS at 2 hours post-dose. [Time Frame: Two hours post dose] • The MBS (nausea, phonophobia or photophobia) will measured using a binary scale (0=absent, 1=present). […] [Time Frame: 2 hours -24 hours post-dose] • Sustained Pain Freedom as measured by a 4 point numeric rating scale (None, Mild, Moderate, Severe) • 2. […] [Time Frame: 2 hours post-dose] • Pain Relief as measured by a 4 point numeric rating scale (None, Mild, Moderate, Severe) • 5. […] Sustained Pain Relief as measured by a 4 point numeric rating scale (None, Mild, Moderate, Severe) • 9. […]

[2] = Pooled safety data (AEs, liver function tests) of Studies 301, 302 and 303
[3] = BHV3000-302 Phase 3 trial: safety and tolerability; conditions: Study 302
Method: In a double-blind, randomized, placebo-controlled, multicenter study (Study 302, NCT03237845) adults […] of age with at least a 1-year history of ICHD 3-beta migraine were eligible to participate. Following a 3- to 28-day screening period, subjects were randomized to receive rimegepant 75 mg or matching placebo and instructed to treat a single migraine attack with 1 dose of the blinded study drug (rimegepant or placebo) when headache pain reached moderate or severe intensity. The coprimary endpoints were pain freedom at 2 hours postdose and freedom from the most bothersome symptom (MBS) at 2 hours postdose. Safety assessments included adverse events (AEs), ECGs, vital signs, physical measurements, and routine laboratory tests, including assessment of liver function. Unless stated otherwise, values presented are mean±SD.

[4] = pooled 301, 302, 303, n = 1,771

N[C@@H]1c2cccnc2[C@H](OC(=O)N2CCC(n3c(=O)[nH]c4ncccc43)CC2)CC[C@H]1c1cccc(F)c1F [Rimegepant, [(55,65,9R)-5-amino-6-(2,3-difluorophenyl)-6,7,8,9-tetrahydro-5H-cyclohepta[b]pyridin-9-yl]4-(2-oxo-3H-imidazo[4,5-b]pyridin-1-yl)piperidine-1-carboxylate]
patients achieving normal function at 2 hours (functional disability) versus placebo [1]: greater proportion
bilirubin elevations > 2x ULN ([2]; across Studies 301, 302 and 303): no patients
ALT or AST >5x ULN, number of patients ([2]; pooled 301, 302, 303, AST elevation deemed not drug-related): 1
ALT or AST >3x ULN, number of patients [2, 4]: 2
ALT or AST >3x ULN, percent [2, 4]: (0.1%)
ALT or AST >5x ULN, percent [2, 4]: (0.06%)
ALT or AST >10x ULN, number of patients [2, 4]: 0
ALT or AST >20x ULN, number of patients [2, 4]: 0
ALT or AST >ULN, number of patients [2, 4]: 48
ALT or AST >ULN, percent [2, 4]: (2.7%)
bilirubin elevations greater than 2 times ULN [3]: no bilirubin elevations
transaminase level greater than 3 times ULN [3]: No subject
safety and tolerability profile ([3]; 75 mg oral tablet): favorable tolerability and safety
Serious AEs (SAEs) ([3]; back pain): 1 subject

Source: patent US20210000814A1, “RIMEGEPANT FOR CGRP RELATED DISORDERS” (Biohaven Pharmaceutical Holding Company Ltd., priority 2018, published 2021)
